Counter-ions that a name gives are not always drawn. Like-named read-outs stand apart in the source and are kept apart here.
Tests used:
Type in all cases: biochemical
JAK2 = JAK2 (Homo sapiens (Human), UniProt O60674); experiment: JAK2 Inhibition Assay (Example C, Omnia kinase fluorescence peptide substrate assay); details: JAK2 Enzyme IC50 1 mM ATP, averaged IC50 ranges
In short: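 4 nM JAK2 with 1 mM ATP and 10 μM Omnia Y7 peptide in 25 mM HEPES pH 7.4, 10 mM MgCl2, 0.01% Triton X-100, 1 mM DTT, 2% DMSO. Sox fluorescence (ex 360/em 485 nm) read every 50 s for 45 min; IC50 from 4-parameter fit of percent of control.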

JAK3 = JAK3 (Homo sapiens (Human), UniProt P52333); experiment: JAK3 Inhibition Assay (Example D, Omnia kinase fluorescence peptide substrate assay)
In short: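 Mixture held 2 nM JAK3, 1 mM ATP and 10 μM Omnia Y7 peptide in 25 mM HEPES pH 7.4, 10 mM MgCl2, 0.01% Triton X-100, 1 mM DTT, 2% DMSO final. Sox fluorescence (ex 360/em 485 nm) was read every 50 s for 45 min. IC50 came from a 4-parameter logistic fit of percent of control.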

Human Tyk2 kinase domain = Human Tyk2 kinase domain (Homo sapiens (Human), UniProt P29597); experiment: Tyk2 Inhibition Assay (Example A, Omnia kinase fluorescence peptide substrate assay); details: TYK2 Enzyme IC50 1 mM ATP, averaged IC50 ranges
In short: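 Omnia Sox-peptide kinetic fluorescence assay (ex 360/em 485 nm, read every 50 s for 45 min) with 1 nM human Tyk2 kinase domain (aa 886–1187, His tag cleaved, baculovirus-expressed), 1 mM ATP, 8 μM Omnia Y12 peptide, in 25 mM HEPES pH 7.4, 10 mM MgCl2, 0.01% Triton X-100, 1 mM DTT, 2% DMSO. IC50 from 4-parameter logistic fit of percent of control.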

JAK1 = JAK1 (Homo sapiens (Human), UniProt P23458); experiment: JAK1 Inhibition Assay (Example B, Omnia kinase fluorescence peptide substrate assay)
In short: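 Recombinant human JAK1 (12.5 nM) with 1 mM ATP and 8 μM Omnia Y12 Sox-peptide in 25 mM HEPES pH 7.4, 10 mM MgCl2, 0.01% Triton X-100, 1 mM DTT, 2% DMSO final. Phosphorylation read kinetically (ex 360/em 485 nm, 45 min); IC50 from 4-parameter fit of percent of control.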

[1] = JAK1 Enzyme IC50 1 mM ATP, 1 mM ATP, averaged IC50 ranges

Human Tyk2 kinase domain, sequence (P29597 886-1187): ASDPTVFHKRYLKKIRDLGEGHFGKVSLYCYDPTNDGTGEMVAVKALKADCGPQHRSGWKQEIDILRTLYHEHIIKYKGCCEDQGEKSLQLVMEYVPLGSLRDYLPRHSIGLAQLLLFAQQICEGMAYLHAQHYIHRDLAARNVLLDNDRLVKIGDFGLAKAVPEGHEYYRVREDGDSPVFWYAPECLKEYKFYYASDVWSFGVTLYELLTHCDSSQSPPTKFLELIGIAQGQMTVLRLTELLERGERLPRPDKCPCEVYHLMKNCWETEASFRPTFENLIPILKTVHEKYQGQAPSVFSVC
JAK3, sequence (P52333 whole entry): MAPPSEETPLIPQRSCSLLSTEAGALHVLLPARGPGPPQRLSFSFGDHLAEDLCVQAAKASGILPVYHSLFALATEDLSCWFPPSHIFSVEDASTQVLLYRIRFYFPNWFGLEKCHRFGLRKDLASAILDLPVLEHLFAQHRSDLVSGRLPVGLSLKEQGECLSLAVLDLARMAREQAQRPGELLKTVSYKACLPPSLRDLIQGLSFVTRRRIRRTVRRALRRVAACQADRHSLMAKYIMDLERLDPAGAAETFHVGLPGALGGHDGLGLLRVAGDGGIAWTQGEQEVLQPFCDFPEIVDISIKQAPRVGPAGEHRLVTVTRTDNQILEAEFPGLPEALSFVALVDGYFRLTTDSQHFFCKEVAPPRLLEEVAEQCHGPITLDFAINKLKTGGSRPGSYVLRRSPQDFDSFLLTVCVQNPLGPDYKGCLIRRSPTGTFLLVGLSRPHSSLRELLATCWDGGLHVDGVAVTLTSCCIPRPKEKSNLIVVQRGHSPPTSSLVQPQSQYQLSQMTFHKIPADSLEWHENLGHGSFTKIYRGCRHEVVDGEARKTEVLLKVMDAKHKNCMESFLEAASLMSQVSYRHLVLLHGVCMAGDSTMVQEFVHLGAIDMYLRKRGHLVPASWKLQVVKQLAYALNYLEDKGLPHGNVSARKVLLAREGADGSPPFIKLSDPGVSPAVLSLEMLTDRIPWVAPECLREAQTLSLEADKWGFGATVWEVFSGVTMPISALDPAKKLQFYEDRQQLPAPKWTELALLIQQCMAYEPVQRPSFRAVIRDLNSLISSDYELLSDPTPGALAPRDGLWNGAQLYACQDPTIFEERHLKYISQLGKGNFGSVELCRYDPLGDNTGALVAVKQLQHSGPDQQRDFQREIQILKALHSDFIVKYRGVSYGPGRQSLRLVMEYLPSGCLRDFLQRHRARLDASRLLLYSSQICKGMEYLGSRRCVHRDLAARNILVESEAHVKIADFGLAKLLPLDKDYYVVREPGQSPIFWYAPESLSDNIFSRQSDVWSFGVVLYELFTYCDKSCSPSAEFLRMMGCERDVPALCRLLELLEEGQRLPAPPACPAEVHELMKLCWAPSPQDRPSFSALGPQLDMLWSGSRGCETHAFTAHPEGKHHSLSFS
JAK2, sequence (O60674 whole entry): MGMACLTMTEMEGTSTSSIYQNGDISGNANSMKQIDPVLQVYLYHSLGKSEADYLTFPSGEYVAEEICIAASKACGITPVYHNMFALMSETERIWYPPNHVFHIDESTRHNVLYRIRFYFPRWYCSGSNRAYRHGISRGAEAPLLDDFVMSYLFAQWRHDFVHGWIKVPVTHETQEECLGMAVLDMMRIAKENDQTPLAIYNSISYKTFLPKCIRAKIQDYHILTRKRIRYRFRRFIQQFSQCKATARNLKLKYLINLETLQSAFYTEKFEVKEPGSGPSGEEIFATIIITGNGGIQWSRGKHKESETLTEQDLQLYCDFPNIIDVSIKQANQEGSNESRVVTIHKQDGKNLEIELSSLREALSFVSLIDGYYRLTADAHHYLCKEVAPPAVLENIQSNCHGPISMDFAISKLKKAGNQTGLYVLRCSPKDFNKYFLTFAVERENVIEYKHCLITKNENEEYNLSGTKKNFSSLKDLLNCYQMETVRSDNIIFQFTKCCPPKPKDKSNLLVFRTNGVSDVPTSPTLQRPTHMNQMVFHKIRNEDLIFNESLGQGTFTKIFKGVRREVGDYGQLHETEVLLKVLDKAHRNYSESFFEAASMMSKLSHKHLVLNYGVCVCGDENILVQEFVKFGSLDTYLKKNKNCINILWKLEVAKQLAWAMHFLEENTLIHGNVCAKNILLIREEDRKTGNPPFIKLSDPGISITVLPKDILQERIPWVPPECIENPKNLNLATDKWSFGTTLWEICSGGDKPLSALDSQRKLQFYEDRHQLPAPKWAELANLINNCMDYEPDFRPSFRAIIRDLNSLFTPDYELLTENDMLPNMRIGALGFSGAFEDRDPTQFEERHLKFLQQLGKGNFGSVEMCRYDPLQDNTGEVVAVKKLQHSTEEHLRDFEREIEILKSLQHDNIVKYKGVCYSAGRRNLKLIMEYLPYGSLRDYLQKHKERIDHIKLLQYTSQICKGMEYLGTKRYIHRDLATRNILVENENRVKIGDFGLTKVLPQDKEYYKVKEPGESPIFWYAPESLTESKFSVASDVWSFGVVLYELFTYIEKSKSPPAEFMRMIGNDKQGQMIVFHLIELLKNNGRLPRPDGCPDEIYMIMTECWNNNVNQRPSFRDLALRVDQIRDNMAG
JAK1, sequence (P23458 whole entry): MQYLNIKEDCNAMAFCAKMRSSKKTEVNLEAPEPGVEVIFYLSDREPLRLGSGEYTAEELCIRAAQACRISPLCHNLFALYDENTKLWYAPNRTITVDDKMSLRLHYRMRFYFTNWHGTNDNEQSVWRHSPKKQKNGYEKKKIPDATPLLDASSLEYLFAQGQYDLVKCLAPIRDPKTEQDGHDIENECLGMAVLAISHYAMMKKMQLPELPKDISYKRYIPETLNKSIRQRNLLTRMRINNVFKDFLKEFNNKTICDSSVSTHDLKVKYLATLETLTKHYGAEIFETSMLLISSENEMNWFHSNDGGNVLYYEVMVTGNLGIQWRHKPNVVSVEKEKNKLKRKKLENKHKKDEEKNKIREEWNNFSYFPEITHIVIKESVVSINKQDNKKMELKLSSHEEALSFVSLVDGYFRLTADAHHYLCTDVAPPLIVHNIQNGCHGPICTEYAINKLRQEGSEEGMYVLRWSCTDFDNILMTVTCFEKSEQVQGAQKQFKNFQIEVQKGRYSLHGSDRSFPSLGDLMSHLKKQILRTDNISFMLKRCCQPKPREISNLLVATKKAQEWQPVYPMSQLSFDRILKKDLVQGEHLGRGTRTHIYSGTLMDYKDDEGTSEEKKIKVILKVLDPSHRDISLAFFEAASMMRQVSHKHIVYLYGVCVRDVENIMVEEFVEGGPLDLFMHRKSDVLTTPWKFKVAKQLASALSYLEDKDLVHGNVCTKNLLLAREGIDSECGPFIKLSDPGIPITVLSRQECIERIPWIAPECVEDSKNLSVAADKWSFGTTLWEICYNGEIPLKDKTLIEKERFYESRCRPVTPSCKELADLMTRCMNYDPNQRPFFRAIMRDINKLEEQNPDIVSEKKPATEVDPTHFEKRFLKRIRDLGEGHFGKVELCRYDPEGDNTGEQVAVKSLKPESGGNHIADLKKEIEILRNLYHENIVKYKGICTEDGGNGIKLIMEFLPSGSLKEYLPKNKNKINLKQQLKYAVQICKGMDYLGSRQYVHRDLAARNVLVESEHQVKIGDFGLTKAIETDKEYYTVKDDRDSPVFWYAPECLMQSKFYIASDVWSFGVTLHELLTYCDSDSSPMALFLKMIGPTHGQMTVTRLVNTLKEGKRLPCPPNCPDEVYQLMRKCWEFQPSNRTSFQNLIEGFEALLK

IC50 (JAK2) [nM]	IC50 (JAK3) [µM]	IC50 (Human Tyk2 kinase domain) [nM]	IC50 (JAK1) [nM]	IC50 (JAK1; [1]) [nM]	Compound
10 to 100	1 to 10	10 to 100	100 to 1000	–	CCC(CC)n1cc(-c2nc(-c3cnn([C@@H](C)[C@H](O)CO)c3)cn3nccc23)cn1 [Example 89, (2S,3S)-3-(4-(4-(1-(pentan-3-yl)-1H-pyrazol-4-yl)pyrazolo[1,5-a]pyrazin-6-yl)-1H-pyrazol-1-yl)butane-1,2-diol]
100 to 1000	1 to 10	100 to 1000	–	1000 to 10000	CC(C)C[C@H](C)n1cc(-c2nc(-c3cnn(C[C@H](O)CO)c3)cn3nccc23)cn1 [Example 76, (S)-3-(4-(4-(1-((S)-4-methylpentan-2-yl)-1H-pyrazol-4-yl)pyrazolo[1,5-a]pyrazin-6-yl)-1H-pyrazol-1-yl)propane-1,2-diol]
10 to 100	1 to 10	10 to 100	100 to 1000	–	CCC(CC)n1cc(-c2nc(-c3cnn(C4CCNCC4)c3)cn3nccc23)cn1 [Example 25, 4-(1-(pentan-3-yl)-1H-pyrazol-4-yl)-6-(1-(piperidin-4-yl)-1H-pyrazol-4-yl)pyrazolo[1,5a]pyrazine hydrochloride]
10 to 100	1 to 10	10 to 100	1000 to 10000	–	CCC(CC)n1cc(-c2nc(-c3cnn(C[C@H](O)C(C)(C)O)c3)cn3nccc23)cn1 [Example 56, (S)-3-methyl-1-(4-(4-(1-(pentan-3-yl)-1H-pyrazol-4-yl)pyrazolo[1,5-a]pyrazin-6-yl)-1H-pyrazol-1-yl)butane-2,3-diol]
100 to 1000	1 to 10	10 to 100	–	100 to 1000	CCC(CC)n1cc(-c2nc(-c3cnn(C[C@H](O)CO)c3)cn3nccc23)cn1 [Example 55, (S)-3-(4-(4-(1-(pentan-3-yl)-1H-pyrazol-4-yl)pyrazolor[1,5-a]pyrazin-6-yl)-1H-pyrazol-1-yl)propane-1,2-diol]
10 to 100	1 to 10	10 to 100	100 to 1000	–	CCC(CC)n1cc(-c2nc(-c3cnn(C[C@@H]4CCC(=O)N4)c3)cn3nccc23)cn1 [Example 17, (S)-5-((4-(4-(1-(pentan-3-yl)-1H-pyrazol-4-yl)pyrazolo[1,5-a]pyrazin-6-yl)-1H-pyrazol-1-yl)methyl)pyrrolidin-2-one]
10 to 100	1 to 10	100 to 1000	–	1000 to 10000	CC[C@H]1CCC[C@H]1n1cc(-c2nc(-c3cnn(C[C@@H](O)CO)c3)cn3nccc23)cn1 (single isomer, unassigned) [Example 208]
10 to 100	1 to 10	10 to 100	100 to 1000	–	CC[C@H](CC(F)(F)F)n1cc(-c2nc(-c3cnn(C(CO)CO)c3)cn3nccc23)cn1 [Example 211, (R)-2-(4-(4-(1-(1,1,1-trifluoropentan-3-yl)-1H-pyrazol-4-yl)pyrazolo[1,5-a]pyrazin-6-yl)-1H-pyrazol-1-yl)propane-1,3-diol]
10 to 100	1 to 10	10 to 100	1000 to 10000	–	CCC(CC)n1cc(-c2nc(-c3cnn(C[C@H](CN)OC)c3)cn3nccc23)cn1 (single isomer, unassigned) [Example 149]
10 to 100	1 to 10	10 to 100	1000 to 10000	–	CCC(CC)n1cc(-c2nc(-c3cnn(C[C@H](N)C(C)(C)O)c3)cn3nccc23)cn1 [Example 183, (S)-3-amino-2-methyl-4-(4-(4-(1-(pentan-3-yl)-1H-pyrazol-4-yl)pyrazolo[1,5-a]pyrazin-6-yl)-1H-pyrazol-1-yl)butan-2-ol]
1000 to 10000	1 to 10	1000 to 10000	1000 to 10000	–	CCC(CCO)n1cc(-c2nc(-c3cnn(C)c3)cn3nccc23)cn1 (stereo not drawn) [Example 47, 3-(4-(6-(1-methyl-1H-pyrazol-4-yl)pyrazolo[1,5-a]pyrazin-4-yl)-1H-pyrazol-1-yl)pentan-1-ol]
10 to 100	1 to 10	100 to 1000	1000 to 10000	–	CCC(CC)n1cc(-c2nc(-c3cnn(C4CN(C(=O)[C@@H](C)O)C4)c3)cn3nccc23)cn1 [Example 175, (R)-2-hydroxy-1-(3-(4-(4-(1-(pentan-3-yl)-1H-pyrazol-4-yl)pyrazolo[1,5-a]pyrazin-6-yl)-1H-pyrazol-1-yl)azetidin-1-yl)propan-1-one]
10 to 100	1 to 10	100 to 1000	1000 to 10000	–	CC[C@@H](C)n1cc(-c2nc(-c3cnn(C4CCS(=O)(=O)CC4)c3)cn3nccc23)cn1 [Example 21, (R)-4-(4-(4-(1-(sec-butyl)-1H-pyrazol-4-yl)pyrazolo[1,5-a]pyrazin-6-yl)-1H-pyrazol-1-yl)tetrahydro-2H-thiopyran 1,1-dioxide]
100 to 1000	1 to 10	10 to 100	100 to 1000	–	CCC(CC)n1cc(-c2nc(-c3cnn(CCN4CCC(O)CC4)c3)cn3nccc23)cn1 [Example 139, 1-(2-(4-(4-(1-(pentan-3-yl)-1H-pyrazol-4-yl)pyrazolo[1,5-a]pyrazin-6-yl)-1H-pyrazol-1-yl)ethyl)piperidin-4-ol]
10 to 100	1 to 10	10 to 100	10 to 100	–	CCC(CC)n1cc(-c2nc(-c3cnn(C[C@H]4CCC(=O)N4)c3)cn3nccc23)cn1 [Example 18, (R)-5-((4-(4-(1-(pentan-3-yl)-1H-pyrazol-4-yl)pyrazolo[1,5-a]pyrazin-6-yl)-1H-pyrazol-1-yl)methyl)pyrrolidin-2-one]
10 to 100	1 to 10	10 to 100	100 to 1000	–	CCC(CC)n1cc(-c2nc(-c3cnn(C4CN(C(=O)[C@H](C)O)C4)c3)cn3nccc23)cn1 [Example 173, (S)-2-hydroxy-1-(3-(4-(4-(1-(pentan-3-yl)-1H-pyrazol-4-yl)pyrazolo[1,5-a]pyrazin-6-yl)-1H-pyrazol-1-yl)azetidin-1-yl)propan-1-one]
10 to 100	1 to 10	10 to 100	100 to 1000	–	CCC(CC)n1cc(-c2nc(-c3cnn(C(C)(C)CO)c3)cn3nccc23)cn1 [Example 124, 2-methyl-2-(4-(4-(1-(pentan-3-yl)-1H-pyrazol-4-yl)pyrazolo[1,5-a]pyrazin-6-yl)-1H-pyrazol-1-yl)propan-1-ol]
10 to 100	1 to 10	10 to 100	100 to 1000	–	CC1CCCCCC1n1cc(-c2nc(-c3cnn(C)c3)cn3nccc23)cn1 (stereo not drawn) [Example 52, 6-(1-methyl-1H-pyrazol-4-yl)-4-(1-(2-methylcycloheptyl)-1H-pyrazol-4-yl)pyrazolo[1,5-a]pyrazine]
10 to 100	1 to 10	10 to 100	–	100 to 1000	CCC(CC)n1cc(-c2nc(-c3cnn(CC[C@H](O)CO)c3)cn3nccc23)cn1 [Example 62, (S)-4-(4-(4-(1-(pentan-3-yl)-1H-pyrazol-4-yl)pyrazolo[1,5-a]pyrazin-6-yl)-1H-pyrazol-1-yl)butane-1,2-diol]
10 to 100	1 to 10	10 to 100	–	10 to 100	CCC(CC)n1cc(-c2nc(-c3cnn([C@H](C)[C@H](C)O)c3)cn3nccc23)cn1 (single isomer, unassigned) [Example 158]
10 to 100	1 to 10	10 to 100	100 to 1000	–	CCC(CC)n1cc(-c2nc(-c3cnn(C4CCN(C(=O)N(C)C)CC4)c3)cn3nccc23)cn1 [Example 35, N,N-dimethyl-4-(4-(4-(1-(pentan-3-yl)-1H-pyrazol-4-yl)pyrazolo[1,5-a]pyrazin-6-yl)-1H-pyrazol-1-yl)piperidine-1-carboxamide]
10 to 100	1 to 10	10 to 100	100 to 1000	–	CCC(CC)n1cc(-c2nc(-c3cnn([C@H]4C[C@@H](CO)C4)c3)cn3nccc23)cn1 [compound 166, (cis-3-(4-(4-(1-(pentan-3-yl)-1H-pyrazol-4-yl)pyrazolo[1,5-a]pyrazin-6-yl)-1H-pyrazol-1-yl)cyclobutyl)methanol]
100 to 1000	1 to 10	100 to 1000	1000 to 10000	–	CCC(CC)n1cc(-c2nc(-c3cnn(CC(O)C(C)(C)C)c3)cn3nccc23)cn1 (stereo not drawn) [Example 112, 3,3-dimethyl-1-(4-(4-(1-(pentan-3-yl)-1H-pyrazol-4-yl)pyrazolo[1,5-a]pyrazin-6-yl)-1H-pyrazol-1-yl)butan-2-ol]
10 to 100	1 to 10	10 to 100	1000 to 10000	–	CCC(CC)n1cc(-c2nc(-c3cnn(CCN4CCCC4)c3)cn3nccc23)cn1 [Example 135, 4-(1-(pentan-3-yl)-1H-pyrazol-4-yl)-6-(1-(2-(pyrrolidin-1-yl)ethyl)-1H-pyrazol-4-yl)pyrazolo[1,5-a]pyrazine]
